Source: PubChem BioAssay (NCI)
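Five concentrations, 48 hours, 96-well plates. GI50 marks 50% less growth. TGI denotes the concentration required for complete inhibition of growth.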

Experiments:
Test in all cases: NCI-60 cell line screen, 48 h
SK-MEL-2 melanoma = system: SK-MEL-2 melanoma
UACC-62 melanoma = system: UACC-62 melanoma
NCI-H226 lung = system: NCI-H226 lung
A498 renal = system: A498 renal
SW-620 colon = system: SW-620 colon
OVCAR-5 ovarian = system: OVCAR-5 ovarian
SK-OV-3 ovarian = system: SK-OV-3 ovarian
OVCAR-8 ovarian = system: OVCAR-8 ovarian
SF-268 CNS = system: SF-268 CNS
HCT-116 colon = system: HCT-116 colon
SF-295 CNS = system: SF-295 CNS
DU-145 prostate = system: DU-145 prostate
EKVX NSCLC = system: EKVX NSCLC
SF-539 CNS = system: SF-539 CNS
OVCAR-3 ovarian = system: OVCAR-3 ovarian
RPMI-8226 leukemia = system: RPMI-8226 leukemia
LOX IMVI melanoma = system: LOX IMVI melanoma
KM12 colon = system: KM12 colon
NCI/ADR-RES ovarian = system: NCI/ADR-RES ovarian
OVCAR-4 ovarian = system: OVCAR-4 ovarian
ACHN renal = system: ACHN renal
T-47D breast = system: T-47D breast
MDA-MB-231 breast = system: MDA-MB-231 breast
MCF7 breast = system: MCF7 breast
U251 CNS = system: U251 CNS
MOLT-4 leukemia = system: MOLT-4 leukemia
MDA-MB-435 = system: MDA-MB-435
HCC-2998 colon = system: HCC-2998 colon
SNB-75 CNS = system: SNB-75 CNS
NCI-H23 lung = system: NCI-H23 lung
HOP-92 NSCLC = system: HOP-92 NSCLC
TK-10 renal = system: TK-10 renal
CAKI-1 renal = system: CAKI-1 renal
HCT-15 colon = system: HCT-15 colon
UACC-257 melanoma = system: UACC-257 melanoma
HOP-62 NSCLC = system: HOP-62 NSCLC
NCI-H460 lung = system: NCI-H460 lung
SNB-19 CNS = system: SNB-19 CNS
HT29 colon = system: HT29 colon
M14 melanoma = system: M14 melanoma
A549 NSCLC = system: A549 NSCLC
PC-3 prostate = system: PC-3 prostate
786-0 renal = system: 786-0 renal
CCRF-CEM leukemia = system: CCRF-CEM leukemia
BT-549 breast = system: BT-549 breast
MALME-3M melanoma = system: MALME-3M melanoma
SK-MEL-28 melanoma = system: SK-MEL-28 melanoma
SK-MEL-5 melanoma = system: SK-MEL-5 melanoma
UO-31 renal = system: UO-31 renal
HL-60(TB) leukemia = system: HL-60(TB) leukemia
COLO 205 colon = system: COLO 205 colon
IGROV1 ovarian = system: IGROV1 ovarian
HS 578T breast = system: HS 578T breast
K-562 leukemia = system: K-562 leukemia
NCI-H522 lung = system: NCI-H522 lung
RXF 393 renal = system: RXF 393 renal
SR leukemia = system: SR leukemia
SN12C renal = system: SN12C renal

SMILES: Cc1ccc2nc(-c3ccc(N)c4ccccc34)[nH]c2c1
- GI50 (SK-MEL-2 melanoma): 0.209 µM
- TGI (SK-MEL-2 melanoma): 24.9 µM
- GI50 (UACC-62 melanoma): < 0.0147 µM
- TGI (UACC-62 melanoma): 17.2 µM
- GI50 (NCI-H226 lung): 0.751 µM
- TGI (NCI-H226 lung): 32.1 µM
- GI50 (A498 renal): 0.0953 µM
- TGI (A498 renal): 16.7 µM
- TGI (SW-620 colon): 27.5 µM
- GI50 (OVCAR-5 ovarian): 0.326 µM
- TGI (OVCAR-5 ovarian): > 73.3 µM
- GI50 (SK-OV-3 ovarian): 0.283 µM
- TGI (SK-OV-3 ovarian): > 46.7 µM
- GI50 (OVCAR-8 ovarian): 1.31 µM
- TGI (OVCAR-8 ovarian): 16.9 µM
- TGI (SF-268 CNS): > 31.6 µM
- GI50 (HCT-116 colon): 0.04 µM
- TGI (HCT-116 colon): 4.57 µM
- GI50 (SF-295 CNS): 0.716 µM
- TGI (SF-295 CNS): 9.53 µM
- GI50 (DU-145 prostate): 0.437 µM
- TGI (DU-145 prostate): 24.8 µM
- GI50 (EKVX NSCLC): 0.185 µM
- TGI (EKVX NSCLC): > 71.5 µM
- GI50 (SF-539 CNS): 0.0607 µM
- TGI (SF-539 CNS): 1.64 µM
- GI50 (OVCAR-3 ovarian): 0.748 µM
- TGI (OVCAR-3 ovarian): 1.85 µM
- GI50 (RPMI-8226 leukemia): 0.0298 µM
- TGI (RPMI-8226 leukemia): 0.934 µM
- GI50 (LOX IMVI melanoma): 0.0801 µM
- TGI (LOX IMVI melanoma): 15.2 µM
- GI50 (KM12 colon): 2.46 µM
- TGI (KM12 colon): 13.5 µM
- GI50 (NCI/ADR-RES ovarian): 0.0835 µM
- TGI (NCI/ADR-RES ovarian): 3.53 µM
- GI50 (OVCAR-4 ovarian): 8.58 µM
- TGI (OVCAR-4 ovarian): > 100 µM
- GI50 (ACHN renal): 0.987 µM
- TGI (ACHN renal): 37.1 µM
- GI50 (T-47D breast): 9.1 µM
- TGI (T-47D breast): > 100 µM
- GI50 (MDA-MB-231 breast): 0.0899 µM
- TGI (MDA-MB-231 breast): 13.3 µM
- GI50 (MCF7 breast): 2.68 µM
- TGI (MCF7 breast): > 100 µM
- GI50 (U251 CNS): 0.0619 µM
- TGI (U251 CNS): 22.5 µM
- GI50 (MOLT-4 leukemia): 1.36 µM
- TGI (MOLT-4 leukemia): 17.3 µM
- GI50 (MDA-MB-435): 0.187 µM
- TGI (MDA-MB-435): 0.444 µM
- GI50 (HCC-2998 colon): 0.356 µM
- TGI (HCC-2998 colon): 12.1 µM
- GI50 (SNB-75 CNS): 1.38 µM
- GI50 (NCI-H23 lung): 0.159 µM
- TGI (NCI-H23 lung): 23.9 µM
- GI50 (HOP-92 NSCLC): 2.62 µM
- TGI (HOP-92 NSCLC): 49.1 µM
- GI50 (TK-10 renal): 0.878 µM
- TGI (TK-10 renal): 59.6 µM
- GI50 (CAKI-1 renal): 0.405 µM
- TGI (CAKI-1 renal): 5.62 µM
- GI50 (HCT-15 colon): < 0.0425 µM
- TGI (HCT-15 colon): 13.4 µM
- GI50 (UACC-257 melanoma): 9.5 µM
- TGI (UACC-257 melanoma): 34.5 µM
- GI50 (HOP-62 NSCLC): 0.617 µM
- TGI (HOP-62 NSCLC): 4.39 µM
- GI50 (NCI-H460 lung): 3.97 µM
- GI50 (SNB-19 CNS): 0.721 µM
- TGI (SNB-19 CNS): > 44.7 µM
- GI50 (HT29 colon): 0.361 µM
- GI50 (M14 melanoma): 0.054 µM
- TGI (M14 melanoma): 0.427 µM
- GI50 (A549 NSCLC): 0.781 µM
- TGI (A549 NSCLC): > 46.2 µM
- GI50 (PC-3 prostate): 0.0706 µM
- TGI (PC-3 prostate): 22 µM
- GI50 (786-0 renal): 0.161 µM
- TGI (786-0 renal): 20.9 µM
- GI50 (CCRF-CEM leukemia): 0.0382 µM
- TGI (CCRF-CEM leukemia): 2.1 µM
- GI50 (BT-549 breast): 0.399 µM
- TGI (BT-549 breast): 21.1 µM
- GI50 (MALME-3M melanoma): 5.85 µM
- TGI (MALME-3M melanoma): 27.3 µM
- GI50 (SK-MEL-28 melanoma): 3.38 µM
- TGI (SK-MEL-28 melanoma): > 54.1 µM
- TGI (SK-MEL-5 melanoma): 1.73 µM
- GI50 (UO-31 renal): 0.437 µM
- TGI (UO-31 renal): 36.4 µM
- GI50 (HL-60(TB) leukemia): 0.102 µM
- TGI (HL-60(TB) leukemia): 3.29 µM
- GI50 (COLO 205 colon): 1.07 µM
- TGI (COLO 205 colon): 6.31 µM
- GI50 (IGROV1 ovarian): 0.424 µM
- TGI (IGROV1 ovarian): > 42.4 µM
- GI50 (HS 578T breast): 0.263 µM
- TGI (HS 578T breast): 32.4 µM
- GI50 (K-562 leukemia): 0.763 µM
- TGI (K-562 leukemia): 39.7 µM
- GI50 (NCI-H522 lung): 0.0958 µM
- TGI (NCI-H522 lung): 1.3 µM
- GI50 (RXF 393 renal): 0.265 µM
- TGI (RXF 393 renal): 14.7 µM
- GI50 (SR leukemia): 0.325 µM
- TGI (SR leukemia): 2.09 µM
- GI50 (SN12C renal): 0.0913 µM
- TGI (SN12C renal): 19.4 µM
